In patent US9795672B2, “Treatment with anti-VEGF antibodies” (Genentech, Inc., priority 2003, dated 2017):
Marks after values point to notes of the source that are not given here.

Assays:
[1] = tested on: CRC; conditions: retrospective subset analysis; cited from earlier work
[2] = tested on: metastatic colorectal cancer; test: Phase II randomized trial, bevacizumab added to bolus 5-FU/LV, first-line, non-optimal candidates for irinotecan: efficacy and quality of life; format: in vivo, human
Source text: Patients with histologically confirmed, previously untreated, measurable metastatic colorectal cancer were eligible if, in the judgment of the investigator, they were not optimal candidates for first-line irinotecan-containing therapy and had at least one of the following characteristics: age above 65 years, ECOG PS of 1 or 2, serum albumin equal or less than 3.5 g/dL, or prior radiotherapy to abdomen or pelvis. […] All patients provided written informed consent for their participation.
A dynamic randomization algorithm was utilized to achieve balance overall and within each of the following categories: study center, baseline ECOG performance status (0 vs. ≧1), site of primary disease (colon vs. rectum), and number of metastatic sites (1 vs. >1). The 5-FU/LV treatment, comprising LV 500 mg/m^2 over 2 hours and 5-FU 500 mg/m^2 as a bolus midway through the LV infusion (Roswell Park regimen; Petrelli et al. (1989) J. Clin. Oncol. 7:1419-1426), was administered weekly for the first 6 weeks of each 8-week cycle. Chemotherapy was continued until study completion (96 weeks) or disease progression. […] At the time of disease progression, patients were unblinded to their treatment assignment and could receive any second-line treatment at the discretion of the investigator. […] After completing the study, patients were followed for any subsequent treatment and survival every 4 months until death, loss to follow-up, or termination of the study.
Patients underwent an assessment of tumor status at baseline and at completion of every 8-week cycle using appropriate radiographic techniques, typically spiral CT scanning. Tumor response, or progression, was determined by both the investigator and an independent radiology facility (IRF) utilizing the Response Evaluation Criteria in Solid Tumors. Therasse et al. (2000). The IRF assessment was performed without knowledge of the treatment assignment or investigator assessment. In addition, patients completed the Functional Assessment of Cancer Therapy—Colorectal (FACT-C), Version 4, a validated instrument for assessing quality of life (QOL) in colorectal cancer patients, at baseline and prior to each treatment cycle until disease progression. Ward et al. (1999) Qual. Life Res. 8:181-195.
The primary outcome measure was duration of overall survival. Secondary outcome measures included progression-free survival, objective response rate (complete and partial), response duration, and change in the FACT-C QOL score. Survival duration was defined as the time from randomization to death. For patients alive at the time of analysis, duration of survival was censored at the date of last contact. Progression-free survival was defined as the time from randomization to the earlier of disease progression or death on study, defined as death from any cause within 30 days of the last dose of study drug or chemotherapy. For patients alive without disease progression at the time of analysis, progression-free survival was censored at their last tumor assessment, or day 1 (the first day of study treatment) if no postbaseline assessment was performed. In the analysis of objective response, patients without tumor assessments were categorized as nonresponders. Disease progression and response analyses were based on the IRF assessments. Change in quality of life was analyzed as time to deterioration in QOL (TDQ), defined as the length of time from randomization to a the earliest of a ≧3-point decrease from baseline in colon-cancer specific FACT-C subscale score (CCS), disease progression, or death on study. TDQ was also determined for the TOI-C (sum of CCS, physical and functional well-being) and total FACT-C for changes from baseline of 7 and 9 points, respectively.
A two-tailed, log-rank test at the 0.05 level of significance with 80% power and two interim analyses were assumed in the calculations. Interim analyses were conducted by an unblinded, independent Data Monitoring Committee (DMC).

[3] = tested on: metastatic colorectal cancer; test: Phase II randomized trial, bevacizumab added to bolus 5-FU/LV: safety; format: in vivo
Procedure: Safety was assessed from reports of adverse events, laboratory test results, and vital sign measurements. Adverse events and abnormal laboratory results were categorized using the National Cancer Institute Common Toxicity Criteria (NCI-CTC), Version 2.
A two-tailed, log-rank test at the 0.05 level of significance with 80% power and two interim analyses were assumed in the calculations. Interim analyses were conducted by an unblinded, independent Data Monitoring Committee (DMC). A safety interim analysis was conducted after 44 deaths and a second safety and efficacy interim analysis was conducted after 89 deaths. The interim efficacy analysis was governed by a formal group sequential stopping rule based on an O'Brien-Fleming spending function. Kaplan-Meier methodology was applied to estimate the median survival, progression free survival, and duration of response time for each treatment group. […] A two-sided stratified log rank test was used to compare the two groups. Stratified analyses included baseline ECOG performance status, site of primary disease, and the number of metastatic sites. Objective response rates were compared by the Chi-squared test. As exploratory analyses, the Cox proportional hazards model was used to estimate the effect of risk factors on modifications of treatment effect for duration of survival and progression-free survival. Efficacy analyses were performed on the intent-to-treat population, defined as all randomized patients. Safety analyses included all patients who received at least one dose of study drug.

[4] = tested on: metastatic colorectal cancer; conditions: patients who progressed following 5-FU therapy; cited from earlier work
[5] = tested on: metastatic colorectal cancer; test: Phase III randomized trial, bevacizumab added to bolus IFL: safety (adverse events, NCI Common Toxicity Criteria v2); format: in vivo
Procedure: Safety was assessed on the basis of reports of adverse events, laboratory-test results, and vital sign measurements. Adverse events were categorized according to the Common Toxicity Criteria of the National Cancer Institute, version 2, in which a grade of 1 indicates mild adverse events, a grade of 2 moderate adverse events, a grade of 3 […] adverse events, and a grade of 4 life-threatening adverse events.
(§1) Efficacy analyses were performed according to the intention-to-treat principle. Safety analyses included all patients who received at least one dose of study medication.

[6] = tested on: metastatic colorectal cancer; test: Phase III randomized trial, bevacizumab added to bolus IFL, first-line: efficacy; format: in vivo, human; conditions: for Overall response rate: complete and partial responses, RECIST; for Median duration of response: in vivo; for Progression-free survival: median; for Median survival: overall survival, primary end point, bevacizumab 5 mg/kg every 2 wk or placebo with IFL
Source text: The trial enrolled over 900 patients with histologically confirmed, previously untreated, bi-dimensionally measurable metastatic colorectal cancer.
Eligible patients had histologically confirmed metastatic colorectal carcinoma, with bidimensionally measurable disease. Other inclusion criteria included an age of at least 18 years, an Eastern Cooperative Oncology Group (ECOG) performance status of 0 or 1 (Oken et al. (1982) Am. J. Clin. Oncol. 5:649-55), a life expectancy of more than three months, and written informed consent. Adequate hematologic, hepatic, and renal function (including urinary excretion of no more than 500 mg of protein per day) was also required.
Exclusion criteria included prior chemotherapy or biologic therapy for metastatic disease (adjuvant or radiosensitizing use of fluoropyrimidines with or without leucovorin or levamisole more than 12 months before study entry was permitted), receipt of radiotherapy within 14 days before the initiation of study treatment, major surgery within 28 days before the initiation of study treatment, clinically significant cardiovascular disease, clinically detectable ascites, pregnancy or lactation, regular use of aspirin (more than 325 mg per day) or other nonsteroidal […] agents, preexisting bleeding diatheses or coagulopathy or the need for full-dose anticoagulation, and known central nervous system metastases.
Eligible patients were assigned to treatment with the use of a dynamic randomization algorithm that was designed to achieve overall balance between groups; randomization was stratified according to study center, baseline ECOG performance status (0 vs. 1), site of primary disease (colon vs. rectum), and number of metastatic sites (one vs. more than one).
Tumor responses and progression were determined with the use of the Response Evaluation Criteria in Solid Tumors. Therasse et al. (2000) J. Natl. Cancer Inst. 92:205-16. […] No crossovers were allowed in the group given IFL plus placebo.
Bevacizumab (or placebo) was administered concomitantly with chemotherapy. […] Standard intracycle and intercycle dose modifications of irinotecan and fluorouracil (according to the package insert)’ were permitted in patients with treatment-related adverse events. The doses of leucovorin and bevacizumab were not altered.
After the baseline evaluation, tumor status was assessed every 6 weeks for the first 24 weeks of the study and then every 12 weeks for the remainder of therapy. All complete and partial responses required confirmation at least four weeks after they were first noted.
The primary outcome measure was the duration of overall survival; survival was measured without regard to subsequent treatments. There was no crossover between groups, however. Survival analysis techniques such as the Kaplan-Meier method, log-rank test, and Cox proportional hazards model were used. Secondary outcome measures were progression-free survival, objective response rates (complete and partial responses), the duration of responses, and the quality of life.
For patients who were alive at the time of analysis, data on survival were censored at the time of the last contact. […] For patients without disease progression at the time of the final analysis, data on progression-free survival were censored at the last assessment of tumor status or on day 0 if no further assessment was performed after baseline. Patients without adequate follow-up data were categorized as having no response.
All calculations were performed with the log-rank test and involved two-sided P values, with an alpha value of 0.05, a statistical power of 80 percent, and one interim analysis of efficacy.
as §1

[7] = addition of bevacizumab compared with 5-FU/LV alone

5-FU/LV/Bevacizumab: 5-fluorouracil and leucovorin (Roswell Park regimen) given with bevacizumab 5 mg/kg every 2 weeks
Median survival, subset aged ≧65 years [1]: 17.7 months
Median survival, subset with baseline PS 1 or 2 [1]: 15.2 months
Median survival, subset with serum albumin<3.5 [1]: 14.1 months
Median time to deterioration in QOL (TDQ), CCS score ([2]; FACT-C colon-cancer specific subscale): 3.1 months
Overall response rate ([2]; IRF assessment): 26.0%
Duration of response ([2]; median): 9.2 months
Progression-free survival ([2]; median, IRF assessment): 9.2 months
Median survival ([2]; overall survival, primary endpoint, intent-to-treat, bevacizumab 5 mg/kg every 2 weeks or placebo with 5-FU/LV (Roswell Park)): 16.6 months
Complete response ([2]; part of overall response rate): 0%
Partial response ([2]; part of overall response rate): 26.0%
Median TDQ, TOI-C ([2]; secondary TDQ measure): 3.2 months
Median TDQ, total FACT-C ([2]; secondary TDQ measure): 3.6 months
60-day all-cause mortality ([3]; in vivo): 5.0%
Arterial thrombotic events, number of patients ([3]; in vivo): 10 patients
Bowel perforation event, number of patients ([3]; in vivo): Two
Incidence of arterial thrombotic events ([3]; in vivo): 10%
Proteinuria of any grade ([3]; in vivo): 38%
Total grade 3 and 4 toxicities ([3]; safety population): 87%

CCc1c2c(nc3ccc(OC(=O)N4CCC(N5CCCCC5)CC4)cc13)-c1cc3c(c(=O)n1C2)COC(=O)[C@]3(O)CC [irinotecan]
Prolongation of survival vs best supportive care [4]: 2.8 month
Prolongation of survival vs infusional 5-FU [4]: 2.2 month

IFL plus Bevacizumab: regimen of irinotecan, fluorouracil and leucovorin (IFL) given with bevacizumab 5 mg/kg every 2 wk
Adverse event leading to hospitalization ([5]; in vivo): 44.9%
Any grade 3 or 4 adverse event ([5]; in vivo): 84.9** percent
Any thrombotic event ([5]; in vivo): 19.4%
Cases of grade 4 bleeding ([5]; in vivo): three
Deep thrombophletitis ([5]; in vivo): 8.9%
Gastrointestinal perforation ([5]; in vivo): 1.5%
Gastrointestinal perforation, number of patients ([5]; in vivo): six
Grade 3 or 4 bleeding ([5]; in vivo): 3.1%
Grade 3 or 4 leukopenia ([5]; in vivo): 37.0%
Hypertension, Any ([5]; in vivo): 22.4** percent
Incidence of arterial thrombotic events ([5]; in vivo): 3.3%
Proteinuria, Any ([5]; in vivo): 26.5%
Proteinuria, Grade 2 ([5]; in vivo): 3.1%
Proteinuria, Grade 3 ([5]; in vivo): 0.8%
Pulmonary embolus ([5]; in vivo): 3.6%
Adverse event leading to death ([5]; incidence): 2.6%
Death within 60 days ([5]; incidence): 3.0%
Absolute improvement in the response rate ([6]; IFL plus bevacizumab vs IFL alone): 10%
Reduction in the risk of death ([6]; bevacizumab group vs IFL plus placebo): 34%
Overall response rate [6]: 44.8%
Median duration of response [6]: 10.4 mo
One-year survival rate ([6]; intention-to-treat): 74.3%
Progression-free survival ([6]; intention-to-treat): 10.6 mo
Median survival ([6]; intention-to-treat): 20.3 mo
Complete response ([6]; part of overall response rate): 3.7%
Partial response ([6]; part of overall response rate): 41.0%
Median duration of overall survival, subgroup with second-line oxaliplatin ([6]; patients who received second-line treatment with oxaliplatin): 25.1 months

bevacizumab: recombinant humanized anti-VEGF monoclonal antibody generated according to Presta et al. (1997)
Effect on quality of life ([2]; FACT-C): no detrimental effect
Prolongation of median survival [2, 7]: 3.7 months
Prolongation of progression-free survival [2, 7]: 3.7 months
Prolongation of response duration [2, 7]: 2.4 months
Increase in the median duration of survival attributable to bevacizumab ([6]; IFL plus bevacizumab vs IFL plus placebo): 4.7 months
Overall response rate [6]: 44.8%
Median duration of response [6]: 10.4 mo
Progression-free survival ([6]; intention-to-treat): 10.6 mo
Median survival ([6]; intention-to-treat): 20.3 mo
